Consider two molecules from US11730815B2, “Stable liquid pharmaceutical compositions comprising bendamustine” (GOOD HEALTH, LLC, priority 2018, dated 2023).

≈ marks a conversion by molar mass, not a printed value. Entries after “also recorded” stand apart in the source; their conditions may differ. Where only a bound is given, the exact number is not on record here.

Assay type in all cases: physicochemical
Data set [1] can be described thus: Solubility of HPβCD in non-aqueous solvents. Conditions: sonicated 10 minutes. On the procedure: PG, PEG 200, PEG 300, PEG 400, and PEG 600 were added to vials containing hydroxy propyl-β-cyclodextrin (HPβCD) (50 mg) and sonicated for 10 minutes. […]
Data set [2] is described as follows: Solubility of bendamustine in non-aqueous solvents. The note with it: sonication; for solubility: organic solvent or mixture, thermodynamic from solid. On the procedure:
Bendamustine HCl was added in 5-10 mg increments to vials containing PG, PEG 200, PEG 300, PEG 400, and PEG 600, and the mixtures were sonicated. Sonication was stopped when the solution remained turbid after 8-10 minutes of sonication.
Note: The solubility might be slightly overestimated because of the generation of heat during long sonication.

The nature of data set [3]: Solubility of bendamustine in non-aqueous solvents in the presence of cyclodextrin. Conditions: for solubility: organic solvent or mixture, thermodynamic from solid. On the procedure:
Bendamustine HCl was added to vials containing 50 mg of HPβCD per mL and PG, PEG 200, PEG 300, PEG 400, or PEG 600, and the mixtures were sonicated for about 8-10 minutes after each addition of bendamustine. The addition of bendamustine was stopped when the solutions remained turbid even after sonication for about 8-10 minutes.

Regarding hydroxy propyl-β-cyclodextrin [HPβCD], the “Solubility of HPβCD: Physical observation” value is reported as “adequate; also recorded: Clear” in data set [1] (50 mg HPβCD per mL of PEG 200); “adequate; also recorded: Clear” in data set [1] (50 mg HPβCD per mL of PEG 300); “insoluble; also recorded: Turbid” in data set [1] (50 mg HPβCD per mL of PEG 400); “insoluble; also recorded: Turbid” in data set [1] (50 mg HPβCD per mL of PEG 600); “adequate; also recorded: Clear” in data set [1] (50 mg HPβCD per mL of PG).
A word on the solubility: it is the concentration that dissolves in the medium under given conditions. Turning to `Cn1c(CCCC(=O)O)nc2cc(N(CCCl)CCCl)ccc21` [bendamustine, 4-(5-(bis(2-chloroethyl)amino)-1-methyl-1H-benzo[d]imidazol-2-yl)butanoic acid], the solubility is over 50 mg/mL in data set [2] (PEG 200 (non-aqueous solvent), in PEG 200); over 50 mg/mL in data set [2] (PEG 300 (non-aqueous solvent), in PEG 300); 25 to 30 mg/mL (≈ 69.8 to 83.7 mM) in data set [2] (PEG 400 (non-aqueous solvent), in PEG 400); 8 to 10 mg/mL (≈ 22.3 to 27.9 mM) in data set [2] (PEG 600 (non-aqueous solvent), in PEG 600); over 50 mg/mL in data set [2] (PG (non-aqueous solvent), in PG); 50 mg/mL in data set [3] (PEG 200 with 50 mg/mL HPβCD, in PEG 200 with 50 mg HPβCD per mL). For the same molecule, the solubility in data set [3] (PEG 300 with 50 mg/mL HPβCD, in PEG 300 with 50 mg HPβCD per mL) was 50 mg/mL; in data set [3] (PEG 400 with 50 mg/mL HPβCD, in PEG 400 with 50 mg HPβCD per mL), 40 to 45 mg/mL; in data set [3] (PEG 600 with 50 mg/mL HPβCD, in PEG 600 with 50 mg HPβCD per mL) it was 25 to 30 mg/mL; in data set [3] (PG with 50 mg/mL HPβCD, in PG with 50 mg HPβCD per mL), 50 mg/mL. For the same molecule, the Solubility of bendamustine entry in data set [2] (in PEG 200) was “adequate”; in data set [2] (in PEG 300), “adequate”; in data set [2] (in PEG 400) it was “insufficient”; in data set [2] (in PEG 600), “insufficient”; in data set [2] (in PG), “adequate”. Besides, the “Appearance of resulting liquid mixture” value in data set [3] (in PEG 200 with 50 mg HPβCD per mL), in data set [3] (in PEG 300 with 50 mg HPβCD per mL), in data set [3] (in PEG 400 with 50 mg HPβCD per mL), in data set [3] (in PEG 600 with 50 mg HPβCD per mL) and in data set [3] (in PG with 50 mg HPβCD per mL) was “Clear solution” each time.
